pIC50: −log10 of the molar value.
Test system: 521955-158-R2-J5-PDC complex spheroid viability
Test: Anticancer human tumor 521955-158-R2-J5-PDC patient-derived pancreatic carcinoma cell line growth inhibition
Details: for pIC50: curve of first compound; for viability, T/C: stronger effect = lower value
How it was run: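 Multicellular complex spheroids of tumor cells with human endothelial cells (HUVEC) and mesenchymal stem cells; the LSD1 inhibitor iadademstat was combined with standard-of-care or investigational agents. Top concentration at or near clinical Cmax, half-log dilutions; final DMSO ≤0.25%.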

[1] = second compound 0.1 µM, first compound 0.00949 µM
[2] = second compound 0.1 µM, first compound 0.03 µM
[3] = second compound 0.1 µM, first compound 0.0949 µM
[4] = second compound 0.1 µM, first compound 0.3 µM
[5] = second compound 0.1 µM, first compound 0.949 µM
[6] = second compound 0.1 µM, first compound 3 µM
[7] = second compound 0.316 µM, first compound 0.00949 µM
[8] = second compound 0.316 µM, first compound 0.03 µM
[9] = second compound 0.316 µM, first compound 0.0949 µM
[10] = second compound 0.316 µM, first compound 0.3 µM
[11] = second compound 0.316 µM, first compound 0.949 µM
[12] = second compound 0.316 µM, first compound 3 µM
[13] = second compound 1 µM, first compound 0.00949 µM
[14] = second compound 1 µM, first compound 0.03 µM
[15] = second compound 1 µM, first compound 0.0949 µM
[16] = second compound 1 µM, first compound 0.3 µM
[17] = second compound 1 µM, first compound 0.949 µM
[18] = second compound 1 µM, first compound 3 µM
[19] = second compound 3.16 µM, first compound 0.00949 µM
[20] = second compound 3.16 µM, first compound 0.03 µM
[21] = second compound 3.16 µM, first compound 0.0949 µM
[22] = second compound 3.16 µM, first compound 0.3 µM
[23] = second compound 3.16 µM, first compound 0.949 µM
[24] = second compound 3.16 µM, first compound 3 µM
[25] = second compound 10 µM, first compound 0.00949 µM
[26] = second compound 10 µM, first compound 0.03 µM
[27] = second compound 10 µM, first compound 0.0949 µM
[28] = second compound 10 µM, first compound 0.3 µM
[29] = second compound 10 µM, first compound 0.949 µM
[30] = second compound 10 µM, first compound 3 µM
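Also: spheroids exposed to agents for seven days.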
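For viability, T/C in this document: percent of DMSO vehicle control luminescence viability.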

With `Cn1ncnc1C1c2n[nH]c(=O)c3cc(F)cc(c23)NC1c1ccc(F)cc1` (stereo not given) + NC1CCC(NC2CC2c2ccccc2)CC1 the pIC50 (second compound 0.1 µM) was < 7.00, the pIC50 (second compound 0.316 µM) was < 7.00 and the pIC50 (second compound 1 µM) was < 7.00. The pIC50 (second compound 3.16 µM) was < 7.00, the pIC50 (second compound 10 µM) was < 7.00 and the viability, T/C (second compound 0.1 µM, first compound 0.000316 µM) was 109%. For the same compound, the viability, T/C (second compound 0.1 µM, first compound 0.001 µM) was 99.9%, the viability, T/C (second compound 0.1 µM, first compound 0.00316 µM) was 98% and the viability, T/C (second compound 0.1 µM, first compound 0.01 µM) was 94.1%. For the same compound, the viability, T/C (second compound 0.1 µM, first compound 0.0316 µM) was 83%, the viability, T/C (second compound 0.1 µM, first compound 0.1 µM) was 87.3% and the viability, T/C (second compound 0.316 µM, first compound 0.000316 µM) was 103%. It also gave a viability, T/C (second compound 0.316 µM, first compound 0.001 µM) of 92.4%, a viability, T/C (second compound 0.316 µM, first compound 0.00316 µM) of 89.8% and a viability, T/C (second compound 0.316 µM, first compound 0.01 µM) of 92.8%. For the same compound, the viability, T/C (second compound 0.316 µM, first compound 0.0316 µM) was 85.1%, the viability, T/C (second compound 0.316 µM, first compound 0.1 µM) was 80.6% and the viability, T/C (second compound 1 µM, first compound 0.000316 µM) was 90.5%. The viability, T/C (second compound 1 µM, first compound 0.001 µM) was 95.5%, the viability, T/C (second compound 1 µM, first compound 0.00316 µM) was 90.1% and the viability, T/C (second compound 1 µM, first compound 0.01 µM) was 87.2%. For the same compound, the viability, T/C (second compound 1 µM, first compound 0.0316 µM) was 81.8%, the viability, T/C (second compound 1 µM, first compound 0.1 µM) was 73.6% and the viability, T/C (second compound 3.16 µM, first compound 0.000316 µM) was 100%. The viability, T/C (second compound 3.16 µM, first compound 0.001 µM) was 96.5%, the viability, T/C (second compound 3.16 µM, first compound 0.00316 µM) was 95% and the viability, T/C (second compound 3.16 µM, first compound 0.01 µM) was 85.9%. The viability, T/C (second compound 3.16 µM, first compound 0.0316 µM) was 85.2%, the viability, T/C (second compound 3.16 µM, first compound 0.1 µM) was 76.3% and the viability, T/C (second compound 10 µM, first compound 0.000316 µM) was 93.7%. For the same compound, the viability, T/C (second compound 10 µM, first compound 0.001 µM) was 97.2%, the viability, T/C (second compound 10 µM, first compound 0.00316 µM) was 92.8% and the viability, T/C (second compound 10 µM, first compound 0.01 µM) was 84.6%. The viability, T/C (second compound 10 µM, first compound 0.0316 µM) was 82% and the viability, T/C (second compound 10 µM, first compound 0.1 µM) was 74.2%.

`NS(=O)(=O)OCC1CC(n2ccc3c(NC4CCc5ccccc54)ncnc32)CC1O` (stereo not given) + NC1CCC(NC2CC2c2ccccc2)CC1 was tested, and the pIC50 (second compound 0.1 µM) was 7.55, the pIC50 (second compound 0.316 µM) was 7.50 and the pIC50 (second compound 1 µM) was 7.58. The pIC50 (second compound 3.16 µM) was 7.59, the pIC50 (second compound 10 µM) was 7.60 and the viability, T/C [1] was 77.7%. The viability, T/C [2] was 49%, the viability, T/C [3] was 26.5% and the viability, T/C [4] was 16.8%. It also gave a viability, T/C [5] of 13.8%, a viability, T/C [6] of 7.17% and a viability, T/C [7] of 69.6%. The viability, T/C [8] was 51.4%, the viability, T/C [9] was 28.9% and the viability, T/C [10] was 15.1%. The viability, T/C [11] was 10.3%, the viability, T/C [12] was 6.4% and the viability, T/C [13] was 71.8%. For the same compound, the viability, T/C [14] was 47.3%, the viability, T/C [15] was 25.5% and the viability, T/C [16] was 13.7%. The viability, T/C [17] was 11.1%, the viability, T/C [18] was 7.37% and the viability, T/C [19] was 70.7%. The viability, T/C [20] was 47.5%, the viability, T/C [21] was 24.4% and the viability, T/C [22] was 15.6%. The viability, T/C [23] was 12.2%, the viability, T/C [24] was 7.55% and the viability, T/C [25] was 74.9%. It also gave a viability, T/C [26] of 46.5%, a viability, T/C [27] of 23.6% and a viability, T/C [28] of 15.3%. It also gave a viability, T/C [29] of 9.78% and a viability, T/C [30] of 5.36%.

In the case of `O=C(C=Cc1cccc(S(=O)(=O)Nc2ccccc2)c1)NO` + NC1CCC(NC2CC2c2ccccc2)CC1, the pIC50 (second compound 0.1 µM) was < 5.52, the pIC50 (second compound 0.316 µM) was < 5.52 and the pIC50 (second compound 1 µM) was < 5.52. For the same compound, the pIC50 (second compound 3.16 µM) was 6.53, the pIC50 (second compound 10 µM) was 6.05 and the viability, T/C [1] was 106%. It also gave a viability, T/C [2] of 112%, a viability, T/C [3] of 88.3% and a viability, T/C [4] of 43.7%. For the same compound, the viability, T/C [5] was 16.5%, the viability, T/C [6] was 104% and the viability, T/C [7] was 112%. For the same compound, the viability, T/C [8] was 104%, the viability, T/C [9] was 90.1% and the viability, T/C [10] was 46.7%. For the same compound, the viability, T/C [11] was 11.5%, the viability, T/C [12] was 98.8% and the viability, T/C [13] was 96.9%. The viability, T/C [14] was 97.3%, the viability, T/C [15] was 81.4% and the viability, T/C [16] was 53%. It also gave a viability, T/C [17] of 13%, a viability, T/C [18] of 88% and a viability, T/C [19] of 99.4%. It also gave a viability, T/C [20] of 102%, a viability, T/C [21] of 84.6% and a viability, T/C [22] of 50.1%. For the same compound, the viability, T/C [23] was 6.88%, the viability, T/C [24] was 89.7% and the viability, T/C [25] was 99.9%. It also gave a viability, T/C [26] of 97.2%, a viability, T/C [27] of 79.5% and a viability, T/C [28] of 51.5%. The viability, T/C [29] was 11.2% and the viability, T/C [30] was 88%.

Reference: PubChem BioAssay AID1918937 (Molecular Pharmacology Branch, DTP, NCI, 2023)
